US8372621B2, “Methods and materials for the production of shikimic acid” (priority 2003, dated 2013)
Where a chain is given by its changes, count along the chain named. Names may count otherwise.

Tests used:
[1] = system: chimeric KDPGal aldolase (DgoA) variant NR8.165-6 (family shuffling of EC03-1, KP03-3 and ST04-5), GST fusion protein; assay: DAHP formation kinetics, family-shuffled variant NR8.165-6 (Table 10); type: biochemical, chimera of E. coli, K. pneumoniae and S. typhimurium
Procedure: (§1) Enzyme activity is measured by following the formation of 3-dehydroshikimic acid (DHS) over time when DHQ synthase (3-dehydroquinate synthase, E.C. 4.2.3.4) and DHQ dehydratase (E.C. 4.2.1.10) are utilized as coupling enzymes. DHQ synthase is prepared as described in Frost, J. W. et al., Biochemistry, 1984, 23, 4470-75; DHQ dehydratase is purified from E. coli AB2848/pKD201 The reaction (1 mL) contains 50 mM morpholinepropanesulfonic acid (MOPS) buffer (pH 7.5), 1 mM D-erythrose 4-phosphate, 1 mM pyruvate, 50 μM CoCl2, 10 μM NAD, 1 U of DHQ synthase, 1 U of DHQ dehydratase and cellular lysate. The reaction is initiated by addition of diluted cellular lysate to the assay solution, and the absorbance at 234 nm monitored continuously for 5 min. One unit of evolved enzyme activity is defined by the formation of one μmol of DHS per minute.
(§2) The the dgoA mutants, EC03-1, KP03-3 and ST04-5, were subjected to DNA family shuffling using the single-stranded DNA shuffling method developed by Zhao and coworkers: Zha, W; Zhu, T; Zhao, H., Methods Mol. Biol. 2003, 231, 91-97. […] The dgoA gene hybrids from the five largest colonies that appeared after 2.5 days were sequenced and their encoding KDPGal aldolase activities toward DAHP formation were determined as shown in Table 9.

[2] = system: E. coli native DAHP synthase AroF; conditions: Ramilo & Evans 1997, cited from earlier work
[3] = system: chimeric KDPGal aldolase (DgoA) variant NR8.165-2 (family shuffling of EC03-1, KP03-3 and ST04-5), GST fusion protein; assay: DAHP formation kinetics, family-shuffled variant NR8.165-2 (Table 10); type: biochemical, chimera of E. coli, K. pneumoniae and S. typhimurium
Procedure: as §1, §2

[4] = system: chimeric KDPGal aldolase (DgoA) variant NR8.165-4 (family shuffling of EC03-1, KP03-3 and ST04-5), GST fusion protein; assay: DAHP formation kinetics, family-shuffled variant NR8.165-4 (Table 10); type: biochemical, chimera of E. coli, K. pneumoniae and S. typhimurium
Procedure: as §1, §2

[5] = molecular target: S. typhimurium KDPGal aldolase (DgoA) variant ST04-5 (D20E, V28M, S42T, I89T, P150L, D178G; parent SEQ ID NO:6), GST fusion protein (Salmonella enterica, UniProt A0A0H3NU26, D178G/D20E/I89T/P150L/S42T/V28M); assay: DAHP formation kinetics, evolved variant ST04-5 (Table 10); type: biochemical; conditions: purified as GST fusion protein
Procedure: as §1, with “The reaction is initiated by addition of diluted cellular lysate to the assay solution, and the absorbance at 234 nm monitored continuously for 5 min.” left out

[6] = system: E. coli native DAHP synthase AroH; conditions: Akowski & Bauerle 1997, cited from earlier work
[7] = system: E. coli native DAHP synthase AroG; conditions: Sheflyan et al. 1998, cited from earlier work
[8] = system: O=C[C@H](O)[C@H](O)COP(=O)(O)O; assay: DAHP formation kinetics, evolved variant ST04-5 (Table 10); type: biochemical, Salmonella typhimurium; conditions: other: purified as GST fusion protein; pH 7.5
Procedure: as §1, with “The reaction is initiated by addition of diluted cellular lysate to the assay solution, and the absorbance at 234 nm monitored continuously for 5 min.” left out

[9] = system: O=C[C@H](O)[C@H](O)COP(=O)(O)O; assay: DAHP formation kinetics, wild-type K. pneumoniae KDPGal aldolase (Table 10); type: biochemical, Klebsiella pneumoniae; conditions: other: purified as GST fusion protein; pH 7.5
Procedure: as §1

[10] = system: O=C[C@H](O)[C@H](O)COP(=O)(O)O; assay: DAHP formation kinetics, wild-type S. typhimurium KDPGal aldolase (Table 10); type: biochemical, Salmonella typhimurium; conditions: other: purified as GST fusion protein; pH 7.5
Procedure: as §1

[11] = substrate: O=C[C@H](O)[C@H](O)COP(=O)(O)O; assay: DAHP formation kinetics, evolved variant EC03-1 (Table 10); type: biochemical, Escherichia coli; conditions: other: purified as GST fusion protein; pH 7.5
Procedure: as §1, with “1 U of DHQ dehydratase and cellular lysate. The reaction is initiated by addition of diluted cellular lysate to the assay solution, and the absorbance at 234 nm monitored continuously for 5 min.” left out

[12] = substrate: O=C[C@H](O)[C@H](O)COP(=O)(O)O; assay: DAHP formation kinetics, wild-type E. coli KDPGal aldolase (Table 10); type: biochemical, Escherichia coli; conditions: other: purified as GST fusion protein; pH 7.5
Procedure: as §1, with “1 U of DHQ dehydratase and cellular lysate. The reaction is initiated by addition of diluted cellular lysate to the assay solution, and the absorbance at 234 nm monitored continuously for 5 min.” left out

[13] = purified as GST fusion protein, read-out: Km (E4P)
[14] = relative to parent enzymes EC03-1 and ST04-5
[15] = read-out: Km for D-erythrose 4-phosphate
[16] = compared with the wild-type E. coli KDPGal aldolase

Chain of S. typhimurium KDPGal aldolase (DgoA) variant ST04-5 (D20E, V28M, S42T, I89T, P150L, D178G; parent SEQ ID NO:6), GST fusion protein (A0A0H3NU26 whole entry D178G/D20E/I89T/P150L/S42T/V28M, the tested form may be a part): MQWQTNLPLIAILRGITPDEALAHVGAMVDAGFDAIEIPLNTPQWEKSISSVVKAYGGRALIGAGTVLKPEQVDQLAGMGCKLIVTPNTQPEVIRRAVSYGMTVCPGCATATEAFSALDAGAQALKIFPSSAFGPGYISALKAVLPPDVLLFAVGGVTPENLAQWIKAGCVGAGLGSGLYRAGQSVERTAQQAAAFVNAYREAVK

## O=C[C@H](O)[C@H](O)COP(=O)(O)O [E4P, D-erythrose 4-phosphate]
[1]; purified as GST fusion protein
  kcat: 0.504 s⁻¹
  kcat/Km: 6300 M⁻¹ s⁻¹
[1]; [13]
  Km: 80 µM
[1]; [14]
  kcat/Km relative to parent enzymes: decrease in kcat/Km values relative to their parent enzymes
[2]
  kcat: 29.5 s⁻¹
[2]; [15]
  Km: 81.4 µM
[3]; purified as GST fusion protein
  kcat: 2.51 s⁻¹
  kcat/Km: 16000 M⁻¹ s⁻¹
[3]; [13]
  Km: 157 µM
[3]; [14]
  kcat/Km relative to parent enzymes: decrease in kcat/Km values relative to their parent enzymes
[4]; [16]
  increase in kcat: 5 fold
  increase in kcat/Km: 25 fold
  reduction in Km for D-erythrose 4-phosphate: 5 fold
[4]; purified as GST fusion protein
  kcat: 4.76 s⁻¹
  kcat/Km: 41400 M⁻¹ s⁻¹
[4]; [13]
  Km: 115 µM
[5]
  kcat: 3.24 s⁻¹
  kcat/Km: 27200 M⁻¹ s⁻¹
[6]
  kcat: 20.6 s⁻¹
[6]; [15]
  Km: 35 µM
[7]
  kcat: 10.3 s⁻¹
[7]; [15]
  Km: 141 µM

## S. typhimurium KDPGal aldolase (DgoA) variant ST04-5 (D20E, V28M, S42T, I89T, P150L, D178G; parent SEQ ID NO:6), GST fusion protein (Salmonella enterica subsp. enterica serovar Typhimurium str. SL1344; D178G/D20E/I89T/P150L/S42T/V28M)
[8]
  Km: 119 µM

## Klebsiella pneumoniae KDPGal aldolase (DgoA), wild type, SEQ ID NO:4, GST fusion protein (Klebsiella pneumoniae subsp. pneumoniae MGH 78578)
[9]
  Km: 1507 µM

## Salmonella typhimurium KDPGal aldolase (DgoA), wild type, SEQ ID NO:6, GST fusion protein (Salmonella enterica subsp. enterica serovar Typhimurium str. SL1344)
[10]
  Km: 685 µM

B1: E. coli KDPGal aldolase (DgoA) variant EC03-1 (F33I, D58N, Q72H, A75V, V85A, V154F; parent SEQ ID NO:2), GST fusion protein (Escherichia coli K-12; … (protein)
chain: MQWQTKLPLIAILRGITPDEALAHVGAVIDAGIDAVEIPLNSPQWEQSIPAIVDAYGNKALIGAGTVLKPEHVDVLARMGCQLIATPNIHSEVIRRAVGYGMTVCPGCATATEAFTALEAGAQALKIFPSSAFGPQYIKALKAVLPSDIAVFAFGGVTPENLAQWIDAGCAGAGLGSDLYRAGQSVERTAQQAAAFVKAYREAVQ
[11]
  Km: 124 µM
  kcat: 2.49 s⁻¹
  kcat/Km: 20100 M⁻¹ s⁻¹

B2: Escherichia coli KDPGal aldolase (DgoA), wild type, SEQ ID NO:2, GST fusion protein (Escherichia coli K-12) (protein)
chain: B1 chain with I33F, N58D, H72Q, V75A, A85V, F154V
[12]
  Km: 571 µM
  kcat: 0.94 s⁻¹
  kcat/Km: 1650 M⁻¹ s⁻¹
